How the values were obtained:
ASPC-1 cells = test: Effect of anti-FZD5 Fabs on proliferation of pancreatic cancer cell lines (percent growth inhibition); assay type: cell-based, human; conditions: Fab 2 μg/ml
FZD1 CRD = molecular target: T1, FZD1 CRD (Homo sapiens, UniProt Q9UP38); test: Immunofluorescence of anti-FZD5 Fab binding to CHO cells overexpressing Frizzled CRD; design: key: −: no binding; +: very weak binder; ++: weak binder; +++: good binder; ++++: very good binder
T1 construct: D112-P238; GPI anchor signal (C); expressed in transfected cells; host or cells: CHO cells, lentiviral pLenti-puro
Experimental: Plasmids: pLCKO lentiviral vector used for knockout (TKO) library construction and expression of individual gRNAs was constructed as described previously (Hart et al., 2015). Briefly, single guide RNA (sgRNA) scaffold was amplified from px330 (Addgene 42230) and cloned into pLKO.TRC005 lentiviral vector (Broad Institute, Cambridge, Mass.) using AgeI/EcoRI restriction sites. BfuAI sites were added at the 5′ end of the sgRNA scaffold for cloning the TKO library or individual gRNA target sequences. Lenti Cas9-2A-BsdR vector used to generate Cas9 stable expression cell lines was constructed as described previously (Hart et al., 2015). Briefly, lentiCRISPR pXPR_001 (Addgene 49535) was modified through removal of the sgRNA scaffold region through NdeI/EcoRI digest and blunt ends generation using Large Klenow Fragment (NEB). 2A-puro was replaced with 2A-BsdR by PCR using the NheI/MluI sites. Each of the 10 human Frizzled cysteine rich domains (CRDs) were cloned into the lentiviral expression plasmid pLenti-puro in the following cassette: FZD_CRD-MYC-GPI.
To confirm that the FZD5-WNT7B circuit is not driven simply by expression and rule out the possibility of a disconnect between RNA and protein levels for the Wnt receptors in HPAF-II cells, a panel of recombinant Fabs were generated, alternatively referred to herein as ‘Frizzled profiler’, that can detect and discriminate all but one of the ten Frizzled receptors. […] To characterize the binding specificity of these Fabs on cells, a panel of 10 CHO cell lines was generated, each expressing the CRD domain of a different myc-tagged Frizzled family member anchored at the plasma membrane through a GPI anchor (CHO-myc-FZDGPI). Despite the high sequence identity between Frizzled family members (FIG. 7A, FIG. 7B), selective Fabs were identified for FZD4, FZD5, FZD6 and FZD10 as assessed by immunofluorescence and flow cytometry (FIG. 7D and FIG. 8). […] The FZD8 CRD is most homologous to that of FZD5 (FIG. 7B). These Fabs can be used to discriminate expression of FZD1, FZD2, FZD4, FZD5, FZD6, FZD7, FZD8, FZD9 and FZD10 (FIG. 7D and FIG. 8). The ‘Frizzled profiler’ therefore consists of 10 different Fabs that can be used to discriminate expression of 9 different Frizzled family members. The Frizzled profiler was then used to confirm that HPAF-II cells express FZD1, FZD5, FZD6 and possibly FZD8 (FIG. 7E).
(§1) The binding of anti-FZD5 Fabs to cell surface-expressed Frizzled protein was further determined for each member of the Frizzled family via flow cytometry and immunofluorescence analysis of a panel of 10 CHO cell lines, each ectopically over-expressing the extracellular cysteine-rich domain (CRD) of a different Frizzled protein family member.

PATU8988S cells = test: Effect of anti-FZD5 Fabs on proliferation of pancreatic cancer cell lines (percent growth inhibition); assay type: cell-based, human; conditions: Fab 2 μg/ml
[1] = system: CHO cells not expressing Frizzled CRD; test: Flow cytometry of anti-FZD5 Fab binding to CHO cells not expressing Frizzled CRD (background)
Source text: as §1

RWP1 cells = test: Effect of anti-FZD5 Fabs on proliferation of pancreatic cancer cell lines (percent growth inhibition); assay type: cell-based, human; conditions: Fab 2 μg/ml

Substance: Fab-2931: anti-FZD5 Fab with antibody variable region Fv-2931; CDR SEQ ID NOs: 35, 36, 70, 102, 146, 176 (CDR 1 QSVSSA; CDR 2 SAS; CDR 3 QQSSYSLIT; CDR 4 GFNLSYSS; CDR 5 ISPYSGST; CDR 6 ARGSYWYVGGGWWVSGHGGMDY)
- percent growth inhibition, ASPC-1 2 μg/ml (ASPC-1 cells): 10.33%
- Immunofluorescence binding, Frizzled CRD overexpressed on CHO cells: FZD1 (FZD1 CRD): −
- percent growth inhibition, PATU8988s 2 μg/ml (PATU8988S cells): −20.00%
- Median fluorescence, Frizzled CRD overexpressed on CHO cells: None [1]: 3.11
- percent growth inhibition, RWP1 2 μg/ml (RWP1 cells): 15.35%

Reference: patent US20210253718A1, “FRIZZLED5 PROTEIN-BINDING AGENTS” (Modmab Therapeutics Corporation, priority 2016, published 2021)
